Assay results: PubChem BioAssay (NCI)
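These data come from cells grown in 96-well plates and exposed to compound for 48 hours at five concentrations. GI50: concentration for 50% inhibition of growth. TGI marks complete inhibition of growth.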

What was measured:
Experiment in all cases: NCI tumour cell line growth inhibition, 48 h
UO-31 renal = tested on: UO-31 renal
NCI-H460 lung = tested on: NCI-H460 lung
HL-60(TB) leukemia = tested on: HL-60(TB) leukemia
M14 melanoma = tested on: M14 melanoma
SNB-19 CNS = tested on: SNB-19 CNS
HOP-62 NSCLC = tested on: HOP-62 NSCLC
SW-620 colon = tested on: SW-620 colon
HCT-116 colon = tested on: HCT-116 colon
U251 CNS = tested on: U251 CNS
UACC-62 melanoma = tested on: UACC-62 melanoma
COLO 205 colon = tested on: COLO 205 colon
OVCAR-3 ovarian = tested on: OVCAR-3 ovarian
SK-MEL-2 melanoma = tested on: SK-MEL-2 melanoma
HS 578T breast = tested on: HS 578T breast
UACC-257 melanoma = tested on: UACC-257 melanoma
OVCAR-4 ovarian = tested on: OVCAR-4 ovarian
HT29 colon = tested on: HT29 colon
HOP-92 NSCLC = tested on: HOP-92 NSCLC
DU-145 prostate = tested on: DU-145 prostate
OVCAR-8 ovarian = tested on: OVCAR-8 ovarian
HCT-15 colon = tested on: HCT-15 colon
LOX IMVI melanoma = tested on: LOX IMVI melanoma
TK-10 renal = tested on: TK-10 renal
SF-295 CNS = tested on: SF-295 CNS
MOLT-4 leukemia = tested on: MOLT-4 leukemia
NCI-H522 lung = tested on: NCI-H522 lung
ACHN renal = tested on: ACHN renal
SN12C renal = tested on: SN12C renal
T-47D breast = tested on: T-47D breast

C=C(C)[C@@H]1CC[C@]2(C)[C@H](CC[C@@H]3[C@@H]([C@@](C)(O)CCC=C(C)C)CC[C@]32C)[C@@]1(C)CCC(=O)N1CCN(C)CC1
GI50 (UO-31 renal): 11.3 µM | TGI (UO-31 renal): 23.3 µM | GI50 (NCI-H460 lung): 16.9 µM | TGI (NCI-H460 lung): 32.9 µM | GI50 (HL-60(TB) leukemia): 4.26 µM | TGI (HL-60(TB) leukemia): 19.2 µM | GI50 (M14 melanoma): 10.1 µM | TGI (M14 melanoma): 24.2 µM | GI50 (SNB-19 CNS): 15 µM | TGI (SNB-19 CNS): 28.4 µM | GI50 (HOP-62 NSCLC): 12.8 µM | TGI (HOP-62 NSCLC): 26.1 µM | GI50 (SW-620 colon): 13 µM | TGI (SW-620 colon): 28.5 µM | GI50 (HCT-116 colon): 4.43 µM | TGI (HCT-116 colon): 16.9 µM | GI50 (U251 CNS): 10.1 µM | TGI (U251 CNS): 22 µM | GI50 (UACC-62 melanoma): 11.2 µM | TGI (UACC-62 melanoma): 24.1 µM | GI50 (COLO 205 colon): 12.3 µM | TGI (COLO 205 colon): 26.8 µM | GI50 (OVCAR-3 ovarian): 10.4 µM | TGI (OVCAR-3 ovarian): 22.5 µM | GI50 (SK-MEL-2 melanoma): 14.8 µM | TGI (SK-MEL-2 melanoma): 29.8 µM | GI50 (HS 578T breast): 13.1 µM | TGI (HS 578T breast): 36.5 µM | GI50 (UACC-257 melanoma): 11.8 µM | TGI (UACC-257 melanoma): 25.6 µM | GI50 (OVCAR-4 ovarian): 10.1 µM | TGI (OVCAR-4 ovarian): 23.4 µM | GI50 (HT29 colon): 4.14 µM | TGI (HT29 colon): 16.2 µM | GI50 (HOP-92 NSCLC): 6.4 µM | TGI (HOP-92 NSCLC): 20.7 µM | GI50 (DU-145 prostate): 11.9 µM | TGI (DU-145 prostate): 24.6 µM | GI50 (OVCAR-8 ovarian): 14.1 µM | TGI (OVCAR-8 ovarian): 30.5 µM | GI50 (HCT-15 colon): 6.04 µM | TGI (HCT-15 colon): 18.1 µM | GI50 (LOX IMVI melanoma): 13.4 µM | TGI (LOX IMVI melanoma): 26.5 µM | GI50 (TK-10 renal): 17.7 µM | TGI (TK-10 renal): 32.2 µM | GI50 (SF-295 CNS): 13.4 µM | TGI (SF-295 CNS): 26.2 µM | GI50 (MOLT-4 leukemia): 6.39 µM | TGI (MOLT-4 leukemia): 29.3 µM | GI50 (NCI-H522 lung): 13.4 µM | TGI (NCI-H522 lung): 28.2 µM | GI50 (ACHN renal): 13.6 µM | TGI (ACHN renal): 26.5 µM | GI50 (SN12C renal): 11.4 µM | TGI (SN12C renal): 24.2 µM | GI50 (T-47D breast): 4.72 µM | TGI (T-47D breast): 19.6 µM
